Experimental data: ChEMBL document CHEMBL1133403 (Bioorg Med Chem Lett, 2000); call rule not given here

Tests used:
Androgen receptor = target: T1, Androgen receptor (Homo sapiens, UniProt P10275); assay: Cross-reactivity as binding to human androgen receptor (hAR); type: functional
T1 sequence (P10275 whole entry): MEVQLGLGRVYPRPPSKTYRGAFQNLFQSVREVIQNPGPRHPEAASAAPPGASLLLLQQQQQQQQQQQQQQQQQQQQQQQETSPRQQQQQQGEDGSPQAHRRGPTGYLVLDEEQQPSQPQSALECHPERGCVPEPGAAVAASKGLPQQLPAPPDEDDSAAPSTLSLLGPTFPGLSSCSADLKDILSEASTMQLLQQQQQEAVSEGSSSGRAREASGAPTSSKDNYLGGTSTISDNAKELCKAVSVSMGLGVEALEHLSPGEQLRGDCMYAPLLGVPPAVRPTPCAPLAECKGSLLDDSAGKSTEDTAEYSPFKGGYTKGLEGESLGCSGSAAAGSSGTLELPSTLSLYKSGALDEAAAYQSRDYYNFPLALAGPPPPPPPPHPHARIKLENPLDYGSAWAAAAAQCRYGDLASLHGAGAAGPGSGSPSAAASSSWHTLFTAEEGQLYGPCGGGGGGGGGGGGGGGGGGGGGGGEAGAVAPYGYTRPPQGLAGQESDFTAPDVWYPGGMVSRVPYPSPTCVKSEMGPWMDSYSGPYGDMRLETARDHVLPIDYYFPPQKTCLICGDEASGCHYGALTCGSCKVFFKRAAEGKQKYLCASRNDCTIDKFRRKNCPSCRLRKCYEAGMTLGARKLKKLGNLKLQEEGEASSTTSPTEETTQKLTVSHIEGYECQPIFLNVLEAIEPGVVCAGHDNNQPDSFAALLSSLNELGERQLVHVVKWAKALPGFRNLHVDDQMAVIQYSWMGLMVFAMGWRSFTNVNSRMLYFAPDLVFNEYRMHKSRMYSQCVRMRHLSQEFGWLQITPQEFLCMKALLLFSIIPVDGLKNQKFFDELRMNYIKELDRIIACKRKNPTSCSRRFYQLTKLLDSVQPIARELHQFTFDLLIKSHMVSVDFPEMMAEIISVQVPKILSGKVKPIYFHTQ

Progesterone receptor [1] = target: T2, Progesterone receptor (Homo sapiens, UniProt P06401); assay: Human progesterone receptor (hPR) agonist activity using cotransfection assay in CV-1 cells.; type: functional, cell-based
T2 sequence (P06401 whole entry): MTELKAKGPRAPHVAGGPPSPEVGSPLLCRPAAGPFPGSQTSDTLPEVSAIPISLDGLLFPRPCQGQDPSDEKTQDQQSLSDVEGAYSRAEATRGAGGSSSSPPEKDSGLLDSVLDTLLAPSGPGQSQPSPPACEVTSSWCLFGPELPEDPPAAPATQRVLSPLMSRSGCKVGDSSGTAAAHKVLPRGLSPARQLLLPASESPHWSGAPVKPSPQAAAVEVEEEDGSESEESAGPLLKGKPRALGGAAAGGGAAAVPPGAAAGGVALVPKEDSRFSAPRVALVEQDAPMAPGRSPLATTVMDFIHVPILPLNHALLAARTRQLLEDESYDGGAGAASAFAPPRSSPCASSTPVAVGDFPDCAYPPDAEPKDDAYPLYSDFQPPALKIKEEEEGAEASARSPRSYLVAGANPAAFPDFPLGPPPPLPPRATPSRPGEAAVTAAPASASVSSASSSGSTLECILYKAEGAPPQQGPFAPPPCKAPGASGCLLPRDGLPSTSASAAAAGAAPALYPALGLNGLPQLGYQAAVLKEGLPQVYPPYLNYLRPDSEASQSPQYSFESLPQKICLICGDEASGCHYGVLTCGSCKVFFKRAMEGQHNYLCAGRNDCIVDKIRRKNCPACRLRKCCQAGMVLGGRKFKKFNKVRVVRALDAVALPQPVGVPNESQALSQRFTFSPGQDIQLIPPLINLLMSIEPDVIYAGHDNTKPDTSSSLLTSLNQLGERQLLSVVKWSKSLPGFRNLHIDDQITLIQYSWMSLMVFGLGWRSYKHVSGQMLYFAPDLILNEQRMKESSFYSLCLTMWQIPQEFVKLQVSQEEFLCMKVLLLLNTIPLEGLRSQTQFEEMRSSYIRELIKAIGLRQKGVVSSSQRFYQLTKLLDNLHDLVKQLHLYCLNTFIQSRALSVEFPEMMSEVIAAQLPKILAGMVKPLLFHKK

Progesterone receptor [2] = target: T2, Progesterone receptor; assay: Antagonist activity against human progesterone receptor (hPR) using cotransfection assay in CV-1 cells; type: functional, cell-based
[3] = target: T3, Mineralocorticoid receptor (Homo sapiens, UniProt P08235); assay: Cross-reactivity as binding to human mineralocorticoid receptor (hMR); NA=not active; type: functional
T3 sequence (P08235 whole entry): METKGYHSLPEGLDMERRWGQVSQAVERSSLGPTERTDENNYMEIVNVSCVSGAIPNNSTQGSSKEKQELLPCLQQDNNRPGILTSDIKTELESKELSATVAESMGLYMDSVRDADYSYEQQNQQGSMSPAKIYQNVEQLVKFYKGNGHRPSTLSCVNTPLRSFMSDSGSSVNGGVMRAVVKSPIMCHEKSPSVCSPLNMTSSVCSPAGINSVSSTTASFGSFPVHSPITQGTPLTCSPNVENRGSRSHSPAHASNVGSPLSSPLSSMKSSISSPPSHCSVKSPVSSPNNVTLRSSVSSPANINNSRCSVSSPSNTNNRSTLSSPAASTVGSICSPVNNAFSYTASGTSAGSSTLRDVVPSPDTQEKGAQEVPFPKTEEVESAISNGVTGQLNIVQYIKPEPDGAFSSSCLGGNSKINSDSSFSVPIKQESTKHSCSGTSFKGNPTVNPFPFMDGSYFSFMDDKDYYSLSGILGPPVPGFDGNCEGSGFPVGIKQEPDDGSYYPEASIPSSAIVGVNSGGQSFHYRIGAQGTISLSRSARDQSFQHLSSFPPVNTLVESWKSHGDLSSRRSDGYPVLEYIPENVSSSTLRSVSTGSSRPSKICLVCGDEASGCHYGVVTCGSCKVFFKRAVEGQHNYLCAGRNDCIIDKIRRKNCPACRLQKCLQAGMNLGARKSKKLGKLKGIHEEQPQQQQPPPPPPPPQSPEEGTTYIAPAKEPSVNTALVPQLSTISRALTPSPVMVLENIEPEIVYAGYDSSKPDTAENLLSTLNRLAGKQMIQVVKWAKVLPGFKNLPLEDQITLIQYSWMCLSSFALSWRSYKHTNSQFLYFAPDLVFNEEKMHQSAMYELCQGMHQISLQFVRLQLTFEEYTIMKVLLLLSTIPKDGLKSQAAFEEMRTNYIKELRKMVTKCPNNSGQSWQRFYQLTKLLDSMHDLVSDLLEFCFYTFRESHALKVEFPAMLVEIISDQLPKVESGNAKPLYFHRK

Progesterone receptor [4] = target: T2, Progesterone receptor; assay: Binding affinity against human progesterone receptor (hPR) in a competitive binding assay

IC50 (Androgen receptor): 1.46 µM | EC50 (Progesterone receptor [1]): Not Active | IC50 (Progesterone receptor [2]): 0.031 µM | IC50 [3]: Not Active | Ki (Progesterone receptor [4]): 0.0026 µM
Compound: CC1=CC(C)(C)Nc2ccc(-c3ccc([N+](=O)[O-])s3)cc21
